We go through six molecules from patent US7674783B2, “Estrogen beta receptor agonists to prevent or reduce the severity of cardiovascular disease” (Dimera Inc., priority 2002, dated 2010).

Structures are written as SMILES. “Also recorded” adds a separate entry of the source.

One data set relates to rhesus coronary VMC. As to the kind of experiment: Ca2+ responses to S+U in rhesus coronary VMC after in vitro treatment (Fluo3 imaging). Format: cell-based, rhesus monkey. To be noted: for Ca2+ signal in response to 15 sec S+U (protection): FIG. 4; for Ca2+ response to S+U (protected state vs control): FIG. 6, p<0.05. An excerpt: (§1) Hearts or major blood vessels are removed at necropsy from rhesus monkeys sacrificed for other purposes and are immediately immersed in cold ionic solution for mammals (ISM2). ISM2 contains, in mM, 100 NaCl, 16 NaHCO3, 0.5 NaH2PO4, 4.7 KCl, 1.8 CaCl2, 0.4 MgCl2, 0.4 HgSO4, 50 HEPES, and 5.5 dextrose, at pH 7-3 to 7.4. Single cells are enzymatically dissociated in a multi-step process for hearts and coronary arteries are dissected from the anterior and posterior walls of the ventricles and the atrioventricular sulcus. The coronary artery segments are cleaned and then cut into small pieces and rinsed in culture solution for mammals—5th generation (CV5M) for 10 min, followed by potassium glutamate (KG) solution for 10 min, both at room temperature. CV5M contains 4.0 mM L-glutamine, 100 μg/mL ciprofloxacin, 50 mM HEPES (pH 7.3), and 16 mM NaHCO3 dissolved in 90% MEM-Earles's salts and 10% horse serum. KG solution contains, in mM, 140 K-glutamate, 50 HEPES (pH 7.3), 16 NaH2PO4, and 16.5 dextrose.
The coronary artery tissue is then incubated at 37° C. for 60 min in an enzyme solution (430 U/ml collagenase and 2 U/ml elastase with 2 mg/ml bovine serum albumin and 100 μM Ca^2+ in 10 ml of 37° C. KG) with slow stirring. The supernatant is transferred to 25 ml of 4° C. KG holding solution with 10% horse serum (KG-H), and 10 ml of enzyme solution is added to the remaining un-dispersed tissue fragments. This enzymatic treatment is repeated three times.
Enzyme exposure is minimized by cold and added serum. Holding solutions (with 10% serum) containing the dispersed cells are centrifuged at 200 G and 4° C. for 5 min. After the supernatant is removed, the cells are re-suspended in 5 ml of 37° C. CV5M and incubated for 1 hr at 37° C. to permit preferential attachment of fibroblasts. The remaining cells in suspension are counted and concentrated to ˜100,000 living cells/ml by centrifugation, and re-suspended in CV5M at 37° C. VMC are then seeded on clean glass coverslips in culture plates, and maintained undisturbed in 95% air-5% CO2 and 95% humidity at 37° C. for attachment for 12 hr, and then flooded with CV5M. Cells from the suspension are also similarly seeded in growth optimized culture flasks and flooded with CV5M after 12 hr.
Media changes to a 1% medium (CV5MM, identical to CV5M except the concentration of horse serum is 1 %) are used to reduce growth factors after 2-4 days. Strict pH control (7.3-7.4) at each temperature (4° and 37° C.) is maintained by recognition and allowance for the temperature coefficient of the HEPES buffer. Subculture of cells is performed by brief trypsinization, followed by neutralization of trypsin, wash in media, reconstitution of cell suspension in medium with 1% serum, and plating onto culture plates and coverslips. For Ca^2+ imaging experiments, VMC from primary culture are used.
Imaging of intracellular Ca^2+ changes is performed using the fluorescent indicator, Fluo3. Glass coverslips with attached VMC are placed into 300 μL LF 922 laminar flow chambers on the stage of a Zeiss Axiovert 200M microscope, and suffused with ISM2 continuously at 1 mL/min. Live cell fluorescent data acquisition is performed with a photon counting Hamamatsu VIM camera in conjunction with image processing software. Briefly, VMC are loaded with 3 μM Fluo3 for 10 min (stopped flow), then washed (continuously suffused) with ISM2 for 5 min. VMC are exposed for stimulation to a combination of serotonin and U46619, a stabile thromboxane A2 mimetic. This combination, containing serotonin at a concentration of 10 μM and U46619 at a concentration of 100 nM, is referred to as S+U. The VMC are exposed to the S+U combination for 15 sec (stopped flow), and then continuously suffused with ISM2.

Data set [1] addresses T1, estrogen receptor beta (ERβ/D22 interaction) (Homo sapiens, UniProt Q92731).
T1 construct: purchased PanVera/Invitrogen (Invitrogen Corp., Carlsbad, Calif.)
As to the kind of experiment: ERβ coactivator fluorescence polarization assay. To be noted: 0.038 nM to 1240 nM, triplicate, FIG. 3. Format: biochemical. Here is the method:
An estrogen receptor beta coactivator fluorescence polarization assay was performed by PanVera/Invitrogen discovery screening applying the company's ERβ Coactivator Assay Kit (Invitrogen Corp., Carlsbad, Calif.) using fluorescence polarization with known estrogen receptor ligands (estradiol, ICI182,780, tamoxifen, and OH-tamoxifen) and test compounds (estriol, 3βAdiol, and epiestriol).
Data on the X-axis of the graph of FIG. 3 are represented as log of concentrations from 0.038 nM to 1240 nM tested for each of the perspective ligands. The ligand concentration that produces a half-maximal increase or decrease in polarization equals the ligand EC50 for the ERβ/D22 interaction. The ordinate Y-axis, mP, indicates fluorescence polarization units. Increase in polarization indicates agonist activity. Conversely, a decrease in polarization indicates antagonist activity. The date represent mean +/− standard deviation of the polarization values from the assay performed in triplicate.

Data set [2] deals with coronary arteries of ovariectomized rhesus monkeys. As to the kind of experiment: Drug-induced (serotonin + U46619) coronary vasospasm in ovariectomized rhesus monkeys, coronary angiography. Format: in vivo, Macaca mulatta. Here is the method:
Six adult ovariectomized (OVX) female rhesus monkeys (Macaca mulatta) were employed in the studies described below. None of the monkeys had been exposed to high cholesterol diets and all were later verified to lack evidence of cardiovascular disease. […] The monkeys were entered into the study no less than 3 months after ovariectomy.
Angiography after overnight fasting began with preanesthesia with ketamine (10 mg/kg body weight intramuscular), intubation with an endotracheal tube and a light surgical plane of anesthesia with isoflurane (induced at 1.5% to 3% maintained at 0.75% to 1.25%), vaporized with 33% nitrous oxide and 67% oxygen, or with 100% oxygen. Bilateral femoral intraarterial 3F catheters allowed for coronary catheterization and continuous recording of systemic arterial blood pressure and heart rate, which were maintained close to the initial anesthetic value for each monkey. […] A heating pad assisted in maintenance of a body temperature decrease ≦2° C. of preanesthesia body temperature (monitored by rectal thermometer). An electrocardiogram (ECG) recorded on a Gould eight-channel recorder, cutaneous arterial oxygen saturation, respiratory rate and end-tidal CO2 were also monitored.
Entire experiments were recorded on videotape (with episodic fluoroscopic imaging and continuous voice annotation) to permit computerized quantitative coronary angiography. […]
Placement of the 3F catheter was adjusted to provide sufficient filling with radio-opaque contrast medium, limited reflux and isolation of a branch of the coronary arterial tree. […] Fluoroscopic images were recorded on film using an OEC model 9800 digital x-ray system with fluoroscopic C-arm, digitally recorded, and evaluated in subsequent analysis. All procedures including a brief 0.2 ml injection of Hexabrix for optimal quantitative angiography were recorded on videotape for subsequent computer analysis. […]
After 4 weeks of daily treatment with 0.2 mg/kg of the estriol topical cream, the monkeys were studied by coronary catheterization, and reactivity was assessed by injection of serotonin (100 μM) and U46619 (1 μM). […]

Data set [3] is described as follows: Estriol absorbed, urine level after topical estriol cream. To be noted: OVX rhesus monkeys, daily 0.3% estriol topical cream, urine collected just prior to catheterization, n = 5. In kind it is in vivo, Macaca mulatta.
Description: Repeat slow intracoronary infusions of 1 ml over 30 seconds of the combination of serotonin and U46619 in this 100:1 molar ratio were used, adjusted for body weight (0.2 mg/kg) to produce coronary blood levels of 6.7 μM serotonin and 67 nM U46619. The levels of these two components were based on calculated coronary flow dilution.
Data set [4] deals with VMC isolated from OVX monkeys. As to the kind of experiment: Ca2+ response to S+U of cultured VMC isolated from estriol-treated OVX monkeys (Fluo3 imaging). In kind it is cell-based, rhesus monkey. The settings on record: VMC from OVX monkeys treated 4 weeks with daily transdermal estriol, cultured 2 weeks.
Description: as §1, with “dextrose. […]” for “dextrose.”
Enzyme exposure is minimized by cold and added serum. […] The remaining cells in suspension are counted and concentrated to ˜100,000 living cells/ml by centrifugation, and re-suspended in CV5M at 37° C. […]

T1 sequence (Q92731 whole entry): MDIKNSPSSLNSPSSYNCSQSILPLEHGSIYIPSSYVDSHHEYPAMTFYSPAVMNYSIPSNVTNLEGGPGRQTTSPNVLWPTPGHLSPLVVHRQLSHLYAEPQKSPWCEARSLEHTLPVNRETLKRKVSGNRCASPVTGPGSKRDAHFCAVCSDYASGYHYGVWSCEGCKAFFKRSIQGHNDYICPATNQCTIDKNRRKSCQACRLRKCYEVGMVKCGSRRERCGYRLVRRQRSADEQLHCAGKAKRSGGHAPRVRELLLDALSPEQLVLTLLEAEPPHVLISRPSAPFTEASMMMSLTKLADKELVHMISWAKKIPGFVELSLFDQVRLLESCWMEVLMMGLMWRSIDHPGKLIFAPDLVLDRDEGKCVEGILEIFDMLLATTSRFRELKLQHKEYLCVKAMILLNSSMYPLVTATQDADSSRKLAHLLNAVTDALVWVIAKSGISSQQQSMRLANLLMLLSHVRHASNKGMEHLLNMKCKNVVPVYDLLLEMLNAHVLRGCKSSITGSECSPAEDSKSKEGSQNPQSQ

On to `C[C@]12CC[C@@H]3c4ccc(O)cc4CC[C@H]3[C@@H]1C[C@H](O)[C@@H]2O` [epiestriol], for which the “Ca2+ signal in response to 15 sec S+U (protection)” value (from here on “Ca2+ signal … (protection)”) with rhesus coronary VMC (72 hours treatment at 1 nM) is “protection with estriol was found to be weaker than the estrogen beta receptor selective agonists 3βAdiol and epiestriol”. In data set [1], the “Estrogen beta receptor agonist activity (increase in polarization)” value was “beta receptor activity similar to that of estriol and estradiol”.

As to `C[C@]12CC[C@H](O)C[C@@H]1CC[C@@H]1[C@@H]2CC[C@]2(C)[C@@H](O)CC[C@@H]12` [3βAdiol, 5α-androstan-3β,17β-diol], the “Protection relative to genistein and DPN” value with rhesus coronary VMC (300 pM 3βAdiol vs 10 nM genistein and 1 nM DPN, FIG. 6) is “superior”. In the data set on rhesus coronary VMC (300 pM), the “Ca2+ response to S+U (protected state vs control)” value is given as “produced a protected state”. For the same molecule, the “Ca2+ signal … (protection)” value with rhesus coronary VMC (72 hours treatment at 300 pM) was “protection with estriol was found to be weaker than the estrogen beta receptor selective agonists 3βAdiol and epiestriol”. Further, in the data set with rhesus coronary VMC (concentrations greater than 30 pM (range tested 30 pM to 3 nM), FIG. 5), the “Ca2+ response to S+U” value is listed as “a protected state was established”. The “Estrogen beta receptor agonist activity (increase in polarization)” value in data set [1] was “beta receptor activity similar to that of estriol and estradiol”.

Regarding `N#CC(Cc1ccc(O)cc1)c1ccc(O)cc1` (stereo not drawn) [DPN, diarylpropionitrile], the “Ca2+ response to S+U (protected state vs control)” value in the data set with rhesus coronary VMC (1 nM) was “produced a protected state”.

Take `C[C@]12CC[C@@H]3c4ccc(O)cc4CC[C@H]3[C@@H]1C[C@@H](O)[C@@H]2O` [estriol]: the “Ca2+ signal … (protection)” value with rhesus coronary VMC (72 hours treatment at 1 nM) was “protective”. Besides, the “Protection relative to the other agonists” value in the data set on rhesus coronary VMC (72 hours, 1 nM estriol vs 300 pM 3βAdiol and 1 nM epiestriol, FIG. 4, p<0.05) is “weaker”. For the same molecule, the “Vasospasm criteria met (incidence)” value in data set [2] (OVX rhesus monkeys, 4 weeks daily 0.3% estriol topical cream, intracoronary serotonin + U46619, criteria <33% of control diameter for >5 minutes) is 0/6. Further, in data set [2] (OVX rhesus monkeys, 4 weeks daily estriol topical cream, serotonin + U46619 challenge), the “Protection against coronary vasospasm” value is “protected against vasospasm; also recorded: protection against coronary vasospasm by administration of estriol was categorical”. In addition, in data set [2] (estriol cream treated OVX monkeys vs untreated OVX, FIG. 1, p<0.05), the “Minimum diameter of coronary arteries following S+U provocative stimulus” value was “indicative of protection against provoked vasospasm”. The “Estrogen beta receptor agonist activity (increase in polarization)” value in data set [1] was “estrogen beta agonists”. Besides, the “E3 absorbed, urine (total)” value in data set [3] is recorded as “***2412 +/− 316 (n = 5) ng/ml”. For the same molecule, the “Ca2+ response state after S+U challenge” value in data set [4] (15 sec S+U stimulus, FIG. 2) was “protected state”. Moreover, the “Duration of Ca2+ spike after S+U challenge” value in data set [4] (declining after 2 min to nearly baseline) fell in the range of 10 to 30 s.

As for `O=c1c(-c2ccc(O)cc2)coc2cc(O)cc(O)c12` [genistein], in the data set with rhesus coronary VMC (10 nM), the “Ca2+ response to S+U (protected state vs control)” value is “produced a protected state”.

Consider `CC[C@@H]1Cc2cc(O)ccc2C2=C1c1ccc(O)cc1C[C@H]2CC` [RRTHC, RR-tetrahydrochrysene], for which the “Ca2+ signal in response to 15 sec S+U (exaggerated hyperreactive state)” value in the data set on rhesus coronary VMC (1 to 6 hour treatment with RRTHC, FIG. 7B) was “not”. The “Ca2+ signal in response to 15 sec S+U” value with rhesus coronary VMC (72 hours in RRTHC in vitro, FIG. 7B, p<0.05) is “exaggerated hyperreactive state beyond control”. Besides, the “Effect on protection by 72 hour 300 pM 3βAdiol (Ca2+ signal after S+U)” value with rhesus coronary VMC (RRTHC 30 μM, 3 hours prior to and during 3βAdiol, FIG. 7A, p<0.05) is on record as “blocked”.
